Results: the NIST ThermoML archive (doi:10.1016/j.fluid.2016.05.030)
Numbers after ± are expanded uncertainties.

Assays:
[1] = molar heat capacity at constant pressure; settings: 298.15 K; 101.33 kPa; Liquid; Drop calorimetry
[2] = 101.33 kPa, Liquid; for viscosity: Concentric cylinders viscometry; for mass density: Vibrating tube method

CCCc1cccc[n+]1CC.O=S(=O)([N-]S(=O)(=O)C(F)(F)F)C(F)(F)F
Settings	molar heat capacity at constant pressure [J/K/mol]
[1]	593.9 ± 14

[2]
Settings	mass density [kg/m3]	viscosity [mPa·s]
293.15 K	1452 ± 1.2	139.89 ± 2.1
298.15 K	1447.2 ± 1.2	105.02 ± 1.2
303.15 K	1442.5 ± 1.2	81.09 ± 0.69
308.15 K	1437.8 ± 1.1	63.9 ± 0.4
313.15 K	1433.1 ± 1.1	51.37 ± 0.27
318.15 K	1428.4 ± 1.1	41.8 ± 0.26
323.15 K	1423.8 ± 1.1	34.57 ± 0.21
328.15 K	1419.2 ± 1.1	28.96 ± 0.18
333.15 K	1414.6 ± 1.1	24.59 ± 0.15
338.15 K	1410 ± 1.1	21 ± 0.13
343.15 K	1405.4 ± 1.1	18.15 ± 0.11
348.15 K	1400.9 ± 1.1	15.82 ± 0.097
353.15 K	1396.4 ± 1.1	13.94 ± 0.085
358.15 K	1391.9 ± 1.1	12.3 ± 0.075
363.15 K	1387.5 ± 1.1	10.95 ± 0.067

CCCCCCCCCc1cccc[n+]1CC.O=S(=O)([N-]S(=O)(=O)C(F)(F)F)C(F)(F)F
Settings	molar heat capacity at constant pressure [J/K/mol]
[1]	778.5 ± 18

CCCCCCCCCCc1cccc[n+]1CC.O=S(=O)([N-]S(=O)(=O)C(F)(F)F)C(F)(F)F
Settings	molar heat capacity at constant pressure [J/K/mol]
[1]	811.2 ± 19

CCCCCc1cccc[n+]1CC.O=S(=O)([N-]S(=O)(=O)C(F)(F)F)C(F)(F)F
Settings	molar heat capacity at constant pressure [J/K/mol]
[1]	652.7 ± 15

[2]
Settings	mass density [kg/m3]	viscosity [mPa·s]
293.15 K	1375.6 ± 1.1	144.37 ± 2.2
298.15 K	1371.1 ± 1.1	108.78 ± 1.3
303.15 K	1366.6 ± 1.1	83.99 ± 0.75
308.15 K	1362.2 ± 1.1	66.14 ± 0.43
313.15 K	1357.8 ± 1.1	53 ± 0.28
318.15 K	1353.4 ± 1.1	43.06 ± 0.27
323.15 K	1349 ± 1.1	35.52 ± 0.22
328.15 K	1344.6 ± 1.1	29.65 ± 0.18
333.15 K	1340.2 ± 1.1	25.11 ± 0.15
338.15 K	1335.8 ± 1.1	21.4 ± 0.13
343.15 K	1331.5 ± 1.1	18.44 ± 0.11
348.15 K	1327.1 ± 1.1	16.02 ± 0.098
353.15 K	1322.8 ± 1.1	14.06 ± 0.086
358.15 K	1318.6 ± 1.1	12.36 ± 0.076
363.15 K	1314.3 ± 1.1	10.97 ± 0.068

CCCCc1cccc[n+]1CC.O=S(=O)([N-]S(=O)(=O)C(F)(F)F)C(F)(F)F
Settings	molar heat capacity at constant pressure [J/K/mol]
[1]	623.6 ± 14

[2]
Settings	mass density [kg/m3]	viscosity [mPa·s]
293.15 K	1413.7 ± 1.1	146.84 ± 2.3
298.15 K	1409.1 ± 1.1	109.82 ± 1.3
303.15 K	1404.5 ± 1.1	84.49 ± 0.76
308.15 K	1400 ± 1.1	66.34 ± 0.44
313.15 K	1395.4 ± 1.1	53.17 ± 0.28
318.15 K	1390.9 ± 1.1	43.11 ± 0.27
323.15 K	1386.4 ± 1.1	35.55 ± 0.22
328.15 K	1381.9 ± 1.1	29.7 ± 0.18
333.15 K	1377.4 ± 1.1	25.14 ± 0.15
338.15 K	1373 ± 1.1	21.42 ± 0.13
343.15 K	1368.5 ± 1.1	18.45 ± 0.11
348.15 K	1364.1 ± 1.1	16.04 ± 0.098
353.15 K	1359.7 ± 1.1	14.09 ± 0.086
358.15 K	1355.4 ± 1.1	12.39 ± 0.076
363.15 K	1351 ± 1.1	11 ± 0.068
